This note sets out measurements from US10364222B2, “Cyclic amine derivative and medical use thereof” (Toray Industries, Inc., priority 2016, dated 2019).

For orientation: inhibition means the share of the control response that was lost under treatment.

Molecules are shown by their SMILES.

In one experiment the test system is IL-17 production in mouse splenocytes. The experiment is described as follows: Suppressive effect on IL-17 production by IL-23 stimulation in mouse splenocytes. The format is cell-based. The conditions noted are these: Splenocyte, 72 h, at 5 μmol/L of the test compound, 10 ng/mL human IL-23, 3 days, read-out: IL-17 production inhibition rate (%). How it is done: Using mouse splenocytes, the suppressive effect of the cyclic amine derivative (I) or a pharmacologically acceptable salt thereof on IL-17 production by IL-23 stimulation was evaluated by a partially modified method mentioned in The Journal of Biological Chemistry, 2003, Vol. 278, No. 3, p. 1910-1914.
A single cell suspension was prepared from the spleen of C57BL/6J mice (male, 7 to 23 weeks old) (Charles River Laboratories Japan, Inc.) and splenocytes were prepared using Histopaque-1083 (Sigma-Aldrich Japan). The culture medium was used by adding 10% FBS (Gibco), 50 U/mL of penicillin 50 μg/mL of streptomycin (Gibco), 50 μmol/L of 2-mercaptoethanol (Gibco), and 100 U/mL of human IL-2 (Cell Science & Technology Institute, Inc.) to RPMI1640 medium (Gibco). The test compound was dissolved in DMSO and then diluted with the culture medium to have a final concentration of DMSO of 0.1% before use. Splenocytes (3×10^5 cells/well) prepared in the culture medium were seeded in wells of a 96-well flat-bottom plate (Corning Incorporated), the test compound and 10 ng/mL of human IL-23 (R & D systems, Inc.) were added thereto, and the cells were cultured at 37° C. under 5% CO2 for 3 days. A well without addition of human IL-23 and without addition of the test compound and a well with addition of human IL-23 and without addition of the test compound were prepared. After completion of the culture, the culture supernatant was collected and the IL-17 production amount in the supernatant was determined by ELISA method (R & D systems, Inc.).
The IL-17 production inhibition rate (%) was calculated from Formula 2. IL-17 production inhibition rate(%)=(1−((IL-17 production amount with addition of IL-23 and with addition of the test compound)−(IL-17 production amount without addition of IL-23 and without addition of the test compound))/((IL-17 production amount with addition of IL-23 and without addition of the test compound)−(IL-17 production amount without addition of IL-23 and without addition of the test compound)))×100 Formula 2
On to `CC(=O)N1CCCCC1C(=O)Nc1ccc(-c2ccccc2OC(F)(F)F)c(Cl)c1` (centres unmarked) [Example 1, 1-acetyl-N-(2-chloro-2′-(trifluoromethoxy)-[1,1′-biphenyl]-4-yl)piperidine-2-carboxamide], for which the inhibition at 5 µM turned out to be 94%.
Turning to `O=C(Nc1ccc(-c2ccccc2OC(F)(F)F)c(Cl)c1)C1CCCCN1C(=O)C(F)(F)F` (centres unmarked) [Example 2, N-(2-chloro-2′-(trifluoromethoxy)-[1,1′-biphenyl]-4-yl)-1-(2,2,2-trifluoroacetyl)piperidine-2-carboxamide], the inhibition at 5 µM was determined as 96.2%.
Regarding `CN(C)CC(=O)N1CCCCC1C(=O)Nc1ccc(-c2ccccc2OC(F)(F)F)c(Cl)c1` (centres unmarked) [Example 6, N-(2-chloro-2′-(trifluoromethoxy)-[1,1′-biphenyl]-4-yl)-1-(2-(dimethylamino)acetyl)piperidine-2-carboxamide], the inhibition at 5 µM was found to be 91.6%.
Take `O=C(Nc1ccc(-c2ccccc2OC(F)(F)F)c(Cl)c1)C1CCCCN1C(=O)C(F)F` (centres unmarked) [Example 7, N-(2-chloro-2′-(trifluoromethoxy)-[1,1′-biphenyl]-4-yl)-1-(2,2-difluoroacetyl)piperidine-2-carboxamide]: the inhibition at 5 µM worked out at 99%.
With `CC(=O)NCC(=O)N1CCCCC1C(=O)Nc1ccc(-c2ccccc2OC(F)(F)F)c(Cl)c1` (centres unmarked) [Example 9, 1-(2-acetamideacetyl)-N-(2-chloro-2′-(trifluoromethoxy)-[1,1′-biphenyl]-4-yl)piperidine-2-carboxamide], the inhibition at 5 µM was 94.6%.
As to `CNCC(=O)N1CCCCC1C(=O)Nc1ccc(-c2ccccc2OC(F)(F)F)c(Cl)c1` (centres unmarked) [Example 11, N-(2-chloro-2′-(trifluoromethoxy)-[1,1′-biphenyl]-4-yl)-1-(2-(methylamino)acetyl)piperidine-2-carboxamide], the inhibition at 5 µM is 94.1%.
As for `CC(=O)N(C)CC(=O)N1CCCCC1C(=O)Nc1ccc(-c2ccccc2OC(F)(F)F)c(Cl)c1` (centres unmarked) [Example 12, N-(2-chloro-2′-(trifluoromethoxy)-[1,1′-biphenyl]-4-yl)-1-(2-(N-methylacetamide)acetyl)piperidine-2-carboxamide], the inhibition at 5 µM came out at 96.1%.
For `CC(=O)N1CC[C@H](O)C[C@@H]1C(=O)Nc1ccc(-c2ccccc2OC(F)(F)F)c(Cl)c1` [Example 24, (2R,4S)-1-acetyl-N-(2-chloro-2′-(trifluoromethoxy)-[1,1′-biphenyl]-4-yl)-4-hydroxypiperidine-2-carboxamide], the inhibition at 5 µM was 95.7%.
Same read-out and setting: with `CS(=O)(=O)N1CC[C@H](O)C[C@@H]1C(=O)Nc1ccc(-c2ccccc2OC(F)(F)F)c(Cl)c1` [Example 26, (2R,4S)—N-(2-chloro-2′-(trifluoromethoxy)-[1,1′-biphenyl]-4-yl)-4-hydroxy-1-(methylsulfonyl)piperidine-2-carboxamide] the figure was 96.4%.
With `CC(=O)N1CC[C@@H](O)C[C@@H]1C(=O)Nc1ccc(-c2ccccc2OC(F)(F)F)c(Cl)c1` [Example 27, (2R,4R)-1-acetyl-N-(2-chloro-2′-(trifluoromethoxy)-[1,1′-biphenyl]-4-yl)-4-hydroxypiperidine-2-carboxamide], the inhibition at 5 µM stood at 97.4%.
Regarding `NCCC(=O)N1CCCCC1C(=O)Nc1ccc(-c2ccccc2OC(F)(F)F)c(Cl)c1` (centres unmarked) [Example 30, 1-(3-aminopropanoyl)-N-(2-chloro-2′-(trifluoromethoxy)-[1,1′-biphenyl]-4-yl)piperidine-2-carboxamide], the inhibition at 5 µM was determined as 99.8%.
As for `CC(=O)NCCC(=O)N1CCCCC1C(=O)Nc1ccc(-c2ccccc2OC(F)(F)F)c(Cl)c1` (centres unmarked) [Example 31, 1-(3-acetamidepropanoyl)-N-(2-chloro-2′-(trifluoromethoxy)-[1,1′-biphenyl]-4-yl)piperidine-2-carboxamide], the inhibition at 5 µM stood at 99.1%.
Take `CN(C)CCC(=O)N1CCCCC1C(=O)Nc1ccc(-c2ccccc2OC(F)(F)F)c(Cl)c1` (centres unmarked) [Example 33, N-(2-chloro-2′-(trifluoromethoxy)-[1,1′-biphenyl]-4-yl)-1-(3-(dimethylamino)propanoyl)piperidine-2-carboxamide]: the inhibition at 5 µM turned out to be 98.3%.
For the molecule `CNCCC(=O)N1CCCCC1C(=O)Nc1ccc(-c2ccccc2OC(F)(F)F)c(Cl)c1` (centres unmarked) [Example 34, N-(2-chloro-2′-(trifluoromethoxy)-[1,1′-biphenyl]-4-yl)-1-(3-(methylamino)propanoyl)piperidine-2-carboxamide], the inhibition at 5 µM is 100%.
On to `CC(=O)N(C)CCC(=O)N1CCCCC1C(=O)Nc1ccc(-c2ccccc2OC(F)(F)F)c(Cl)c1` (centres unmarked) [Example 35, N-(2-chloro-2′-(trifluoromethoxy)-[1,1′-biphenyl]-4-yl)-1-(3-(N-methylacetamide)propanoyl)piperidine-2-carboxamide], for which the inhibition at 5 µM is 94.9%.
On to `NCCC(=O)N1CCCC[C@@H]1C(=O)Nc1ccc(-c2ccccc2OC(F)(F)F)c(Cl)c1` [Example 38, (R)-1-(3-aminopropanoyl)-N-(2-chloro-2′-(trifluoromethoxy)-[1,1′-biphenyl]-4-yl)piperidine-2-carboxamide], for which the inhibition at 5 µM was 99%.
Same read-out and setting: with `CNCCC(=O)N1CCCC[C@@H]1C(=O)Nc1ccc(-c2ccccc2OC(F)(F)F)c(Cl)c1` [Example 41, (R)-N-(2-chloro-2′-(trifluoromethoxy)-[1,1′-biphenyl]-4-yl)-1-(3-(methylamino)propanoyl)piperidine-2-carboxamide] the figure was 99.1%; with `O=C(Nc1ccc(-c2ccccc2OC(F)(F)F)c(Cl)c1)[C@H]1CCCCN1C(=O)Cn1cnnc1` [Example 62, (R)-1-(2-(4H-1,2,4-triazol-4-yl)acetyl)-N-(2-chloro-2′-(trifluoromethoxy)-[1,1′-biphenyl]-4-yl)piperidine-2-carboxamide], 100%; with `O=C(Nc1ccc(-c2ccccc2OC(F)(F)F)c(Cl)c1)[C@H]1CCCCN1C(=O)Cn1cncn1` [Example 63, (R)-1-(2-(1H-1,2,4-triazol-1-yl)acetyl)-N-(2-chloro-2′-(trifluoromethoxy)-[1,1′-biphenyl]-4-yl)piperidine-2-carboxamide], 99.9%.
For `CN(C)CCC(=O)N1CCCC[C@@H]1C(=O)Nc1ccc(-c2ccccc2OC(F)(F)F)c(Cl)c1` [Example 68, (R)-N-(2-chloro-2′-(trifluoromethoxy)-[1,1′-biphenyl]-4-yl)-1-(3-(dimethylamino)propanoyl)piperidine-2-carboxamide], the inhibition at 5 µM stood at 99.4%.
As for `O=C(O)CCCC(=O)N1CCCC[C@@H]1C(=O)Nc1ccc(-c2ccccc2OC(F)(F)F)c(Cl)c1` [Example 70, (R)-5-(2-((2-chloro-2′-(trifluoromethoxy)-[1,1′-biphenyl]-4-yl)carbamoyl)piperidin-1-yl)-5-oxopentanoic acid], the inhibition at 5 µM stood at 99.7%.

A further experiment concerns the target T1, ligand-binding domain of RORγ (RORγ-LBD) (Homo sapiens, UniProt P51449).
T1 construct: purchased Invitrogen
T1 sequence (P51449 269-508 limits assumed): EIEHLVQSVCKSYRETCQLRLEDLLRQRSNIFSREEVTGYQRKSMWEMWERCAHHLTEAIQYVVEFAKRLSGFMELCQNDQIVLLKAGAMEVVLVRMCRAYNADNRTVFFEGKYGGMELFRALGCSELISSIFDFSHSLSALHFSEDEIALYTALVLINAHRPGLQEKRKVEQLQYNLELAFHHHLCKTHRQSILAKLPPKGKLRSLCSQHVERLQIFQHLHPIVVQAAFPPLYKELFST
The experiment is described as follows: Inhibitory effect on RORγ-coactivator binding (LanthaScreen TR-FRET RORγ Coactivator Assay). Conditions: at 33 μmol/L of the test compound; read-out: RORγ-coactivator binding inhibition rate (%). On the procedure: The inhibitory effect of the cyclic amine derivative (I) or a pharmacologically acceptable salt thereof on the binding between a ligand-binding domain of RORγ (hereinafter referred to as RORγ-LBD) and a coactivator was evaluated using Invitrogen's LanthaScreen™TR-FRET Retinoid-Related Orphan Receptor (ROR) gamma Coactivator Assay kit utilizing time-resolved fluorescence energy transfer (TR-FRET).
The test compound was dissolved in DMSO and diluted with TR-FRET Coregulator Buffer D (Invitrogen) containing 5 mmol/L of DTT to have a final DMSO concentration of 1% before use. To each well of a 384-well black plate (Corning Inc.), 4 nmol/L of GST-fused RORγ-LBD (Invitrogen) diluted with the buffer mentioned above and the test compound were added. A well without addition of the test compound and without addition of GST-fused RORγ-LBD (background) and a well without addition of the test compound and with addition of GST-fused RORγ-LBD (control) were prepared. Next, 150 nmol/L of fluorescein-labeled TRAP220/DRIP-2 (Invitrogen) diluted with the buffer mentioned above and 32 nmol/L of terbium-labeled anti-GST antibody (Invitrogen) were added to each well. After incubating the plate at room temperature for 16 to 24 hours, the fluorescence at 495 nm and 520 nm when excited at 320 nm was measured for each well and the ratio (fluorescence value at 520 nm/fluorescence value at 495 nm) was calculated.
The fold change with addition of the test compound (ratio with addition of the test compound/ratio of the background), the fold change of the control (ratio of the control/ratio of the background), and the fold change of the background (ratio of the background/ratio of the background) were calculated, and then the inhibition rate of binding between RORγ-LBD and a coactivator (hereinafter referred to as RORγ-coactivator binding inhibition rate) (%) was calculated from Formula 1: RORγ-coactivator binding inhibition rate(%)=(1−((Fold change with addition of the test compound)−(Fold change of the background))/((Fold change of the control)−(Fold change of the background)))×100 Formula 1
On the technique in general: TR-FRET usually uses a lanthanide donor and a delayed reading to cut background.
Turning to `CC(=O)N1CCCCC1C(=O)Nc1ccc(-c2ccccc2OC(F)(F)F)c(Cl)c1` (centres unmarked) [Example 1, 1-acetyl-N-(2-chloro-2′-(trifluoromethoxy)-[1,1′-biphenyl]-4-yl)piperidine-2-carboxamide], the inhibition at 33 µM was 90.9%.
With `O=C(Nc1ccc(-c2ccccc2OC(F)(F)F)c(Cl)c1)C1CCCCN1C(=O)C(F)(F)F` (centres unmarked) [Example 2, N-(2-chloro-2′-(trifluoromethoxy)-[1,1′-biphenyl]-4-yl)-1-(2,2,2-trifluoroacetyl)piperidine-2-carboxamide], the inhibition at 33 µM was found to be 91.9%.
